From patent publication US8637510B2, “Morpholinothiazoles as alpha 7 positive allosteric modulators” (Janssen Pharmaceutica NV, priority 2009, dated 2014)

How the values were obtained:
human alpha 7-wt nAChR = target: T1, human alpha 7-wt nAChR (Homo sapiens, UniProt P36544); assay: Ca2+ flux imaging (FDSS) (Protocol B); type: cell-based; conditions: for Emax: efficacy of 100 μM choline defined as 100% in the absence of a PAM, read-out: a7-PAM-G_[33]_Eff_Curve_FI % Efficacy; for EC50: potentiation of 100 μM choline, compounds 0.01 μM to 30 μM, read-out: a7-PAM-G_[33]_pEC50 pEC50 (converted)
T1 construct: expressed in transfected cells
Summary of the method: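 PAM activity was measured as FDSS calcium fluorescence in α7-wt nAChR cells loaded with 2 μM Fluo-4AM, with compounds at 0.01–30 μM added alongside or 10 min ahead of sub-maximal 100 μM choline. Peak responses were normalised to choline-only efficacy, and EC50 was taken at half-maximal effect.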

[1] = target: T2, human alpha 7-wt nAChR-expressing GH4C1 cells (Homo sapiens, UniProt P36544); assay: Patch-clamp current recording (whole-cell voltage-clamp, PAM type classification); type: cell-based; design: key: Type 0 compounds minimally change the effect size of the current elicited by 1 mM choline.; Type 1 compounds enhance the effect size of the current elicited by 1 mM choline but minimally alter the kinetics of the receptor.; Type 2 compounds enhance the effect size of the current elicited by 1 mM choline while reducing the rate and/or the extent of desensitization.; Type 3 compounds enhance the effect size of the current elicited by 1 mM choline. When tested at higher concentrations up to 10 μM they completely inhibit desensitization; Type 4 compounds allow for an initial desensitization of the receptor followed by a re-opening of the receptor during agonist application; conditions: 1 mM choline
T2 construct: expressed in transfected cells
Summary of the method: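 Whole-cell voltage clamp of GH4C1 cells stably expressing human wild-type α7 nAChR, with compound co-applied with 1 mM choline via rapid (<100 ms) solution switching; external pH 7.3, CsCl-based internal solution, 1.5-3 MΩ electrodes. PAM type (0-4) assigned from current kinetics when peak potentiation reached ≥200% of control choline response.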

T2 sequence (P36544 23-502): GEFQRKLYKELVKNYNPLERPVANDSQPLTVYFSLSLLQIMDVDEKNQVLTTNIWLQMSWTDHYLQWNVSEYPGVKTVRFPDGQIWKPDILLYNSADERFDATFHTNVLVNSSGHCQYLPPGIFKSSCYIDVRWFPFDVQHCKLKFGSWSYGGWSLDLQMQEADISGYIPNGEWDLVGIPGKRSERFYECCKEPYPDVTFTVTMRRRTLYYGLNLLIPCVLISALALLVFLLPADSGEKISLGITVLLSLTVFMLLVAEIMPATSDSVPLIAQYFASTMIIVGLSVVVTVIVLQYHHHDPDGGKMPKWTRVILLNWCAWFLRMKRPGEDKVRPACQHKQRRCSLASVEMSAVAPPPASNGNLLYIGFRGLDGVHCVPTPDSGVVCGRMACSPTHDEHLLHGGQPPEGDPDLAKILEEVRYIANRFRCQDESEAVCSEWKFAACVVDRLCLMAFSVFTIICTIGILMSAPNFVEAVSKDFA
T1 sequence (P36544 23-502): as above

SMILES	Emax (human alpha 7-wt nAChR) [%]	EC50 (human alpha 7-wt nAChR) [µM]	melting point [°C]	PAM_Type PAM type [1]
Cc1cc(-c2sc(N3C[C@@H](C)O[C@@H](C)C3)nc2CNC(=O)c2ncsc2C)cc(C)n1 [Compound 178, N-[[2-[(2R,6S)-2,6-dimethyl-4-morpholinyl]-5-(2,6-dimethyl-4-pyridinyl)-4-thiazolyl]methyl]-5-methyl-4-thiazolecarboxamide]	733	0.501	180	0
Cc1cc(-c2sc(N3CCOC(C(F)(F)F)C3)nc2CNC(=O)CC2CC2)cc(C)n1 (stereo not shown) [Compound 190, N-[[5-(2,6-dimethyl-4-pyridinyl)-2-[2-(trifluoromethyl)-4-morpholinyl]-4-thiazolyl]methyl]-cyclopropaneacetamide]	–	0.0708	168	2
Cc1cc(-c2sc(N3CCO[C@H](C(F)(F)F)C3)nc2CNC(=O)CC2CC2)cc(C)n1 [Compound 192, N-[[5-(2,6-dimethyl-4-pyridinyl)-2-[(2S)-2-(trifluoromethyl)-4-morpholinyl]-4-thiazolyl]methyl]-cyclopropaneacetamide]	670	0.234	183	2
Cc1cc(-c2sc(N3CCOC(C(F)(F)F)C3)nc2CNC(=O)C(C)C)cc(C)n1 (stereo not shown) [Compound 194, N-[[5-(2,6-dimethyl-4-pyridinyl)-2-[2-(trifluoromethyl)-4-morpholinyl]-4-thiazolyl]methyl]-2-methyl-propanamide]	–	0.055	189	3
Cc1cc(-c2sc(N3CCOC(C(F)(F)F)C3)nc2CNC(=O)c2conc2C)cc(C)n1 (stereo not shown) [Compound 196, N-[[5-(2,6-dimethyl-4-pyridinyl)-2-[2-(trifluoromethyl)-4-morpholinyl]-4-thiazolyl]methyl]-3-methyl-4-isoxazolecarboxamide]	819	0.0562	178	2
Cc1cc(-c2sc(N3CC4CCC(C3)O4)nc2CNC(=O)C(C)C)cc(C)n1 [Compound 207, N-[[5-(2,6-dimethyl-4-pyridinyl)-2-(8-oxa-3-azabicyclo[3.2.1]oct-3-yl)-4-thiazolyl]methyl]-2-methyl-propanamide]	–	3.31	179	1
Cc1cc(-c2sc(N3CC4CCC(C3)O4)nc2CNC(=O)c2ccc(F)cc2C)cc(C)n1 [Compound 208, N-[[5-(2,6-dimethyl-4-pyridinyl)-2-(8-oxa-3-azabicyclo[3.2.1]oct-3-y1)-4-thiazolyl]methyl]-4-fluoro-2-methyl-benzamide]	898	0.603	194	2

Further lines, with some results ahead:

Emax (human alpha 7-wt nAChR) [%]	EC50 (human alpha 7-wt nAChR) [µM]	melting point [°C]	SMILES	PAM_Type PAM type [1]
995	0.0741	182	Cc1cc(-c2sc(N3CCO[C@@H](C(F)(F)F)C3)nc2CNC(=O)CC2CC2)cc(C)n1 [Compound 191, N-[[5-(2,6-dimethyl-4-pyridinyl)-2-[(2R)-2-(trifluoromethyl)-4-morpholinyl]-4-thiazolyl]methyl]-cyclopropaneacetamide]	2
–	0.186	170	Cc1cc(-c2sc(N3CCOC(C(F)(F)F)C3)nc2CNC(=O)c2cc(C)on2)cc(C)n1 (stereo not shown) [Compound 195, N-[[5-(2,6-dimethyl-4-pyridinyl)-2-[2-(trifluoromethyl)-4-morpholinyl]-4-thiazolyl]methyl]-5-methyl-3-isoxazolecarboxamide]	0
–	0.363	205	Cc1nocc1C(=O)NCc1nc(N2C[C@@H](C)O[C@@H](C)C2)sc1-c1ccnc(C(F)(F)F)c1 [Compound 197, N-[[2-[(2R,6S)-2,6-dimethyl-4-morpholinyl]-5-[2-(trifluoromethyl)-4-pyridinyl]-4-thiazolyl]methyl]-3-methyl-4-isoxazolecarboxamide]	1
–	0.162	198	C[C@@H]1CN(c2nc(CNC(=O)CC3CC3)c(-c3ccnc(C(F)(F)F)c3)s2)C[C@H](C)O1 [Compound 200, N-[[2-[(2R,6S)-2,6-dimethyl-4-morpholinyl]-5-[2-(trifluoromethyl)-4-pyridinyl]-4-thiazolyl]methyl]-cyclopropaneacetamide]	1
930	0.245	216	CC(C)C(=O)NCc1nc(N2C[C@@H](C)O[C@@H](C)C2)sc1-c1ccnc(C(F)(F)F)c1 [Compound 201, N-[[2-[(2R,6S)-2,6-dimethyl-4-morpholinyl]-5-[2-(trifluoromethyl)-4-pyridinyl]-4-thiazolyl]methyl]-2-methyl-propanamide]	1
705	3.16	161	Cc1cc(-c2sc(N3CC4CCC(C3)O4)nc2CNC(=O)CC2CC2)cc(C)n1 [Compound 209, N-[[5-(2,6-dimethyl-4-pyridinyl)-2-(8-oxa-3-azabicyclo[3.2.1]oct-3-y1)-4-thiazolyl]methyl]-cyclopropaneacetamide]	0
